“And” between values parts separate entries of the source, which are not always exact repeats. Equal values may be shown once.
Assays:
[1] = UV-Vis absorbance spectra; type: physicochemical; settings: 25 μM in HBSS buffer with 1% DMSO
Description: (§1) Solubility in buffer was explored for all compounds using nephelometry ([Bevan and Lloyd, 2000]) and these studies indicate good solubility of all azobenzene photoswiches up to at least 100 μM (Figure S1). […] For all compounds, 360 nm induces a large change in absorbance spectrum compared with the non-illuminated (dark) compounds (Table 1, Figure 2A, and S1), indicating photoisomerization to the cis-isomer. The absorbance peak (λmax) of Opto-prop-1-3 ranged between 319 and 347 nm for the trans-isomers and between 423 and 429 for the cis-isomers (Table 1), as is typical for azobenzene compounds ([Hauwert et al., 2018]). […] The photochemical conversions were determined by continuous illumination of the Opto-prop compounds with near UV-light (360 ± 20 nm) as 10-mM solutions in DMSO. Based on LCMS analysis, it was observed that all compounds obtained a high level of conversion to the cis-isomer with a photostationary state (PSS) of >88 area % cis-isomer (i.e. PSScis; Table 1). Subsequent back-switching to PSStrans with 434 nm maintained 22–29 area % cis-isomer (Table 1). The thermal relaxation of the PSScis state of the photoswitchable ligands was monitored over time by measuring absorbance at 254 nm. Only minor thermal relaxation to the trans-isomer could be detected at 20°C (not shown). An estimate of the relaxation rate at 20 °C was determined using a method by Priimagi et al. ([Ahmed et al., 2017]), which was performed in Hanks’ balanced salt solution (HBSS) using increased temperatures to enhance the speed of thermal relaxation. The Opto-prop ligands are all very stable as cis-isomer after illumination, with thermal relaxation half-lives of >10 days at 20 °C (See Table 1 and Figure S1).
UV-Vis spectra were obtained using a Thermo-scientific Evolution 201 PC spectrophotometer. Illumination was executed using a Sutter instruments Lambda LS with a 300 Watt full-spectrum lamp connected to a Sutter instruments Lambda 10-3 optical filter changer equipped with 360 ± 20 nm, 400 ± 5 nm, 434 ± 9 nm and 460 ± 5 nm filters. The light intensity is 0.93 mW/mm^2 using the 360 ± 20 nm filter, 0.22 mW/mm^2 using the 400 ± 5 nm filter, 0.79 mW/mm^2 for the 434 ± 9 nm filter and 0.26 mW/mm^2 for the 460 ± 5 nm filter as measured using a Thorlabs PM16-401 power meter.
For the determination of the UV-Vis spectra shown in Figure 2A, compounds (25 μM in 1% DMSO/HBSS buffer) were illuminated in Hellma Suprasil quartz 114-QS cuvettes with either a 360, 400, 434 or 460 nm filter for the indicated time. For the determination of PSScis and PSStrans states by UV spectroscopy (Figures S1D–S1F), a solution of the compound in 1% DMSO/HBSS buffer (25 μM) in a vial was illuminated to PSS cis with 360 nm (typically 4–5 min) and subsequently to PSS trans with 434 nm (typically 2–5 min). UV spectra were recorded.

[2] = PSScis and PSStrans by LC analysis; type: physicochemical; settings: LCMS area at isosbestic wavelength
Description: as §1
For the determination of PSScis and PSStrans values by LC analysis (Table 1), a solution of the compound in DMSO (10 mM) was illuminated to PSScis with 360 nm and subsequently to PSStrans with 434 nm. PSS aliquots were withdrawn, diluted with MeCN and subjected to LCMS analysis with the corresponding isosbestic points wavelength: 278, 263 and 308 nm for Opto-prop-1-3, respectively.

[3] = Time-resolved light-induced isomerization by 1H NMR and LCMS
Description: The kinetic properties of light-induced isomer switching were further characterized using these wavelengths. Switching was monitored by ^1H NMR (Figures 2B and 2D) and LCMS (Figures 2C and 2E) analyses in tandem. The ^1H NMR signal of the ortho C-H proton adjacent to the ether function was selected as a clearly resolved signal to quantify the level of isomerization (Figure 2D).
NMR, LC and UV-Vis spectra were plotted in GraphPad Prism 8 and were visualized by fitting the data to a second order polynomial with a smooth function, using 4 neighboring data points. […] For the time-resolved isomerization experiments, integration of the peak areas was performed with Shimadzu and MestreNova software for LC and NMR integration, respectively. The normalized peak areas over time were fitted by non-linear regression in GraphPad Prism 8 using a one-phase exponential model which yields the t1/2 value of the isomerization reaction and the extrapolated PSS (i.e. the asymptote).

β2-AR [4] = target: T1, β2-AR (Homo sapiens, UniProt P07550); assay: Kinetic β-arrestin2 recruitment to β2-AR with 360 nm light flashes; type: cell-based; parameters: expressed in transfected cells; host or cells: HEK293T, transient (PEI); settings: 1 μM with 32 nM isoprenaline; six 5-min cycles of 360 nm flashes
T1 sequence (P07550 whole entry): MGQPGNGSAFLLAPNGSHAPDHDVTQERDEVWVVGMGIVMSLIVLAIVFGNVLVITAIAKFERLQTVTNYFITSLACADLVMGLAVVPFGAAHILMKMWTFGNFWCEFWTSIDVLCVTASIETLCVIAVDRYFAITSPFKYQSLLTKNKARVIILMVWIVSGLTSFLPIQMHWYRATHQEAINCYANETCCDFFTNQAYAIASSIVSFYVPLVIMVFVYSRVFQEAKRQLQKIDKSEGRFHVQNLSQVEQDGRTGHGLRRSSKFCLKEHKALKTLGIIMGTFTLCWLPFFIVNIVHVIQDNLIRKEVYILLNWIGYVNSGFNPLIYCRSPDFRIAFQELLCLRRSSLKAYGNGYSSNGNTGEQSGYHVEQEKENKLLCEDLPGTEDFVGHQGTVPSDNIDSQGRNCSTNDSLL
Description: It was further explored whether the activity of the β2-AR could be modulated dynamically by treating cells with light (Figure 5). Cells that overexpress a split-nanoluc luciferase biosensor system for βarrestin2 recruitment to the β2-AR were treated with isoprenaline in the presence of Opto-prop-2. A time-dependent activation of the receptor is observed for 10 min after which cells were pulsed with light flashes of 360 nm.
Cells incubated with Opto-prop-2 are depicted in green and magenta before and after illumination, respectively. Data points represent the mean ± SEM of the three experiments, normalized to the luminescence at 10 min as 100%.
HEK293T cells were transiently transfected with 2 μg plasmid DNA per million using linear PEI at a DNA:PEI weight-ratio of 1:6. ([Zarca et al., 2021]) The used DNA plasmids were β2-AR-SmBit (0.4 μg), β-arrestin2-LgBit (0.6 μg) and pcDEF3 (non-coding DNA; 1 μg). The DNA/PEI transfection mix in 150 mM NaCL was vortexed and incubated for 15 min before adding it to a cell suspension with a final concentration of 300,000 cell/mL. Cells were then immediately plated 30,000 cells/well on a white 96-well plate (Greiner). […] After 10 min the protocol setting were switched to treat cells repeadetly with 360 nm light flashes (40 times 200 flashes over 5 min) followed after each 5 min cycle with detection of luminescence, up to a total detection time of 40 min.

β2-AR [5] = target: T1, β2-AR; assay: NanoBiT complementation: mini-Gαs recruitment to β2-AR, Schild analysis
Description: (§2) Mixed stable populations of HEK-β2AR-β-arrestin2, or HEK-β2AR-mGs cells were generated by selection in G418 (0.8 mg^−1) and zeocin (200 μg mL^−1) for 7–10 days, in DMEM, supplemented with 10% fetal bovine serum (FBS; Sigma Aldrich).
(§3) The antagonist affinity (KD) was then estimated by a Schild plot of log [CR-1] against log [B] (the antagonist concentration) using the relationship: Log[CR−1]=Log[B]−LogKD.

β2-AR [6] = target: T1, β2-AR; assay: NanoBiT complementation: β-arrestin2 recruitment to β2-AR, Schild analysis
Description: as §2, §3

β1-AR = β1-AR (Homo sapiens, UniProt P08588); assay: [3H]DHA radioligand displacement on membranes of HEK293T cells expressing β1-AR; settings: for Ki: β1-AR
Sequence of β1-AR (P08588 whole entry): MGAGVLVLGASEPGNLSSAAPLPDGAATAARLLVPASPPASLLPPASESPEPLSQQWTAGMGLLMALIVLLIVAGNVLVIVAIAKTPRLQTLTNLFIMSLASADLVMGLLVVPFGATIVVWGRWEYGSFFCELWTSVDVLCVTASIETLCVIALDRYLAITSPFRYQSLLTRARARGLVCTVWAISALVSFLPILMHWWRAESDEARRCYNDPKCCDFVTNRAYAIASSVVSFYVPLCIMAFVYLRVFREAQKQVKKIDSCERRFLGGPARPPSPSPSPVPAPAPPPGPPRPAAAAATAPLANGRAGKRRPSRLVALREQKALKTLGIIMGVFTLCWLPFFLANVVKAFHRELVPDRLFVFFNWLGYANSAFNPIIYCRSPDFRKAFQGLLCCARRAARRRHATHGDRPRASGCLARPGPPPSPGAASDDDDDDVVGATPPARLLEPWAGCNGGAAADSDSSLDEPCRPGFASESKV
Description: Membranes of HEK293T-cells transiently expressing the receptor of interest were co-incubated with the tritiated β1/β2-AR antagonist dihydroalprenolol ([^3H]DHA, Figure S2 depicts saturation binding experiments), together with increasing concentrations of the competing unlabeled ligand.
Two million HEK293T cells were seeded in a 10cm^2 dish and were transiently transfected the next day with 1 μg human β1-AR or the β2-AR plasmid DNA, 4 μg empty pcDEF3 plasmid DNA and 30 μg linear 25 kDa polyethyleneimine (PEI; Polysciences Warrington, USA) in a 150 mM NaCl solution. […] Two days after transfection, cells were resuspended and washed (3 times) with PBS and pelleted by centrifugation steps at 1500 g. After the final centrifugation step, cell pellets were reconstituted into ice-cold Tris-HCl buffer (15 mM, supplemented with 0.3 mM EDTA and 2 mM MgCl2 at pH7.4) and dounce-homogenised by plunging the pestle 10 times with 1,500 rpm (Tamson, the Netherlands). The homogenates were frozen and thawed twice using liquid nitrogen, after which the membranes were isolated using an ultra-centrifuge L70 at 40,000 g (Beckman Coulter, USA). Cell pellets were then washed and reconstituted in ice-cold 20 mM Tris-HCl buffer supplemented with 250 mM Sucrose at pH 7.4. Finally, the membrane samples where homogenized using a 23-gauge needle, snap-frozen with liquid nitrogen and stored until further experimentation at −80 °C. The protein content was determined using a BCA protein assay kit (Thermo Scientific, USA).
On the day of the experiment 0.25–0.5 μg membranes expressing either the β1-AR or the β2-AR, were co-incubated with [^3H]DHA (Perkin Elmer, USA) and increasing concentrations unlabeled ligand in HBSS buffer (Thermo Scientific, with Ca^2+ and Mg^2+) supplemented with 0.1% BSA for 1 h at 25 °C under gentile agitation. Either a 4 nM or 1 nM concentration of [^3H]DHA was used in combination with membranes expressing either the β1-AR or β2-AR, respectively. Binding reactions were terminated by filtration over a PEI coated GF/C filter (Perkin Elmer) using ice-cold 50 mM Tris-HCl buffer with 500 mM NaCl at pH 7.4. GF/C plates were dried at 52 °C and filter bound [^3H]DHA was quantified by adding 25 μL/well Microscint-O scintillation liquid and counting luminescence using the Wallac Microbeta counter, as described before.
IC50 values were determined by fitting the concentration-dependent displacement of [^3H]DHA by unlabeled ligands, with a three-parameter sigmoidal model in GraphPad Prism. […] Competition binding graphs represent the pooled data of ≥3 experiments, normalized to the fitted top and bottom of the reference sigmoidal displacement curve of unlabeled DHA.

[7] = at PSScis, agonist isoprenaline

λmax cis ([1]; cis-isomer): 424 nm | λmax trans ([1]; trans-isomer): 319 nm | PSScis (% cis-isomer) ([2]; 10 mM in DMSO after illumination with 360 nm): 92.8 ± 0.4 % cis-isomer | isomerization half-life, 360 nm ([3]; 1H NMR, 10 mM in DMSO-d6): 4 min | isomerization half-life, 434 nm ([3]; 1H NMR, 10 mM in DMSO-d6): 3 min | cis-isomer at PSScis ([3]; 1H NMR, 360 nm, 10 mM in DMSO-d6): 86 mol% | cis-isomer at PSStrans ([3]; 1H NMR, 434 nm, 10 mM in DMSO-d6): 20 mol% | fitted cis-isomer at PSScis ([3]; LCMS, 360 nm): 94% | isomerization half-life to PSScis ([3]; LCMS, 360 nm): 4 min | fitted cis-isomer at PSStrans ([3]; LCMS, 434 nm): 23% | isomerization half-life to PSStrans ([3]; LCMS, 434 nm): 3 min | β2-AR activity (β-arrestin2 recruitment) after 360 nm light flashes (β2-AR [4]): a drop in β2-AR activity is observed | Kb (β2-AR [5]): 25.1 nM | slope of the Schild-plot, mini-Gαs recruitment (β2-AR [5]; [7]): 1.2 | Kb (β2-AR [6]): 25.1 nM | slope of the Schild-plot, β-arrestin2 recruitment (β2-AR [6]; [7]): 0.9 | fold Ki trans vs PSScis at β1-AR (β1-AR; fold difference between Ki of trans and Ki at PSScis): 21 fold | Active state at β1-AR (β1-AR; isomer state with higher affinity): cis | Ki (β1-AR; pKi PSScis, illuminated to PSScis (360 nm) before experiment): 200 nM | Ki (β1-AR; pKi trans, without prior illumination (trans-isomer)): 5010 nM
Compound: CC(C)NCC(O)COc1cccc(N=Nc2ccccc2)c1 (stereo not drawn) [Opto-prop-2]
PSStrans (% cis-isomer) ([2]; 10 mM in DMSO, 360 nm then 434 nm): 26 % cis-isomer and 25.9 ± 0.4 % cis-isomer
